According to patent US20130310306A1, “HUMAN LACTOFERRIN DERIVED PEPTIDES AND THEIR USE” (PharmaSurgics In Sweden AB, priority 2011, published 2013):

What was measured:
S. aureus (CCUG 1800) = experiment: Minimal microbicidal concentration (MMC99) assay, S. aureus; type: cell-based; conditions: 2 hours; for MMC99 μM in 50% SWF: 50% heat inactivated simulated wound fluid
Experimental: Antimicrobial Activity was Measured as Bactericidal Effect on S. Aureus Using Minimal Microbicidal Concentration, MMC99, Assay)
S. aureus (#1800; CCUG, Gothenburg, Sweden) cultured on blood-agar plates [Columbia agar (Oxoid, Basingstoke, UK) supplemented with 5% defibrinated horse blood (National Veterinary Institute (SVA), Uppsala, Sweden)] were transferred to brain heart infusion broth (3.7% BHI; Difco, BD Diagnostics, Franklin Lakes, N.J., USA) and incubated in a shaker at 250 rpm+37° C. over night. The culture was thereafter be diluted 1:10 in fresh BHI broth and incubated for additional two hours to reach log-phase growth. The bacteria were pelleted and suspended in 1% BHI medium (BHI broth diluted 100 times in ultra-pure water) to a concentration of 10^7 bacteria/ml as estimated by measuring optical density at 600 nm. Peptides were serially diluted by two-fold steps from 160 μM to 1.25 μM in 1% BHI medium. The peptides (100 μl) were thereafter incubated with bacteria (5 μl á 10^7 bact./ml) for 2 hours at +37° C. Drops (5 μl) of the suspension were placed on blood agar plates. The blood agar plates were incubated over night at +37° C. The MMC99 values, i.e. the lowest peptide concentration needed to achieve a 99% reduction of viable bacteria, were recorded (Table 3). The concentration of the bacterial suspension used in the assay was confirmed by viable counts on blood agar plates.
S. aureus (#1800; CCUG, Gothenburg, Sweden) cultured on blood-agar plates [Columbia agar (Oxoid, Basingstoke, UK) supplemented with 5% defibrinated horse blood (National Veterinary Institute (SVA), Uppsala, Sweden)] were transferred to brain heart infusion broth (3.7% BHI; Difco, BD Diagnostics, Franklin Lakes, N.J., USA) and incubated in a shaker at 250 rpm+37° C. over night. The culture was thereafter be diluted 1:10 in fresh BHI broth and incubated for additional two hours to reach log-phase growth. The bacteria were pelleted and suspended in 1% BHI medium (BHI broth diluted 100 times in ultra-pure water) to a final concentration of 10^7 bacteria/ml as estimated by measuring optical density at 600 nm. Peptides were serially diluted by two-fold steps from 400 μM to 0.78 μM in either 1% BHI medium or in 50% heat inactivated simulated wound fluid [SWF, containing 1 part 0.1% peptone (Oxoid, Basingstoke, UK) in saline and 1 part fetal bovine serum, diluted 2 times in ultra-pure water].
The peptides (100 μl) were thereafter incubated with bacteria (5 μl á 10^7 bact./ml) for 2 hours at +37° C. Drops (5 μl) of the suspension were placed on blood agar plates. The blood agar plates were incubated over night at +37° C. The MMC99 values, i.e. the lowest peptide concentration needed to achieve a 99% reduction of viable bacteria were recorded (Table 6). The concentration of the bacterial suspension used in the assay was confirmed by viable counts on blood agar plates.
The antimicrobial effects of the peptide 265 (SEQ ID NO: 27) was analysed by MMC99 (minimal microbicidal concentration) assay against S. aureus (CCUG 1800), MRSA (CCUG 41879), P. aeruginosa (ATCC 15442), E. coli (CCUG 31246), S. pyogenes (CCUG 4207), P. acnes (CCUG 1794T), S. epidermidis (ATCC12228), K. pneumoniae (ATCC 13883), A. baumannii (ATCC 19606), and C. albicans (ATCC 64549). The peptides were purchased from Biopeptide Company (San Diego, Calif., USA) and Bachem AG (Bubendorf, Switzerland) and results are presented in Table 8A and 8B respectively.
Peptide was serially diluted in two different assay medium, 1% BHI medium (brain-heart infusion medium) or 50% heat inactivated simulated wound fluid (SWF), and thereafter incubated with the microorganisms for 2 hours. Drops of the suspension were placed on blood agar plates. The MMC99 values, i.e. the lowest peptide concentration needed to achieve a 99% reduction of viable microorganisms, were recorded. As presented in Table 8, the peptide has the ability to kill microorganisms frequently appearing in infections.

[1] = system: TNF-α production in LPS stimulated THP-1 cells; experiment: Inhibition of TNF-α production in LPS stimulated THP-1 cells (ELISA); conditions: mean relative secretion; for TNF-α at 40 μM peptide: stimulated level without peptide = 100%, basal = 0%

Row | Sequence | MMC99 μM in 1% BHI medium (S. aureus (CCUG 1800); screen 2) | MMC99 μM in 50% SWF (S. aureus (CCUG 1800); screen 2) | TNF-α at 40 μM peptide ([1]; screen 2) | TNF-α at 4 μM peptide ([1]; screen 2) | TNF-α at 10 μM peptide ([1]; screen 2) | MMC99 μM in 1% BHI medium (S. aureus (CCUG 1800); screen 1, 99% reduction of viable bacteria) | TNF-α at 40 μM peptide ([1]; screen 1, 6 h)
1 | GRRRRSGRVKRMRRKQWF [Peptide 268] | 6.25 µM | 200 µM | 74.4% | 114.5% | 129.7% |  | 
2 | KQWKRMMRKVFSVRRWFL [Peptide 262] | 6.25 µM | 6.25 µM | 12.1% | 79.6% | 45.3% |  | 
3 | KQWKRWMRKVFVSLRRVG [Peptide 260] | 6.25 µM | 25 µM | 5.9% | 99.3% | 74.0% |  | 
4 | RQWKRRMRKVFHSYRRMG [Peptide 259] | 6.25 µM | 25 µM | 33.0% | 108.4% | 108.5% |  | 
5 | RQWKRVMRKVFGSRWWRG [Peptide 261] | 12.5 µM | 12.5 µM | 24.5% | 86.0% | 56.2% |  | 
6 | WFQWKRAMRKVRGSRRRRG [Peptide 130] |  |  |  |  |  | 5 µM | 6%
